Experiments:
[1] = biological target: Non-receptor tyrosine-protein kinase TYK2 (Homo sapiens, UniProt P29597); assay: TYK2 (TYK2/JAK2 PSTAT4 T-BLAST) Alpha Screen Assay
Procedure: IL-12 is known to transduce its signal through IL-12 receptor via Jak2 and/or Tyk2. For that reason, the activity against Tyk2/Jak2 was measured by determining the inhibition of IL-12 induced phosphorylation of STAT4 in T-blast cells. […] See, e.g., Sohn et al., J. Immunology (2013) 2205-2216.

[2] = biological target: Tyrosine-protein kinase JAK1 (Homo sapiens, UniProt P23458); assay: JAK1 (PSTAT3 TF1) Alpha Screen Assay
Procedure: IL-6 is known to transduce its signal through IL-6 receptor via Jak1. Activity against Jak was therefore measured by determining inhibition of IL-6 induced phosphorylation of STAT3 in TF1 cells. From these tests, the EC50 (effective concentration for 50% maximal response) values were determined in 1 μM for the test compounds.

Tyrosine-protein kinase JAK1, sequence (P23458 whole entry): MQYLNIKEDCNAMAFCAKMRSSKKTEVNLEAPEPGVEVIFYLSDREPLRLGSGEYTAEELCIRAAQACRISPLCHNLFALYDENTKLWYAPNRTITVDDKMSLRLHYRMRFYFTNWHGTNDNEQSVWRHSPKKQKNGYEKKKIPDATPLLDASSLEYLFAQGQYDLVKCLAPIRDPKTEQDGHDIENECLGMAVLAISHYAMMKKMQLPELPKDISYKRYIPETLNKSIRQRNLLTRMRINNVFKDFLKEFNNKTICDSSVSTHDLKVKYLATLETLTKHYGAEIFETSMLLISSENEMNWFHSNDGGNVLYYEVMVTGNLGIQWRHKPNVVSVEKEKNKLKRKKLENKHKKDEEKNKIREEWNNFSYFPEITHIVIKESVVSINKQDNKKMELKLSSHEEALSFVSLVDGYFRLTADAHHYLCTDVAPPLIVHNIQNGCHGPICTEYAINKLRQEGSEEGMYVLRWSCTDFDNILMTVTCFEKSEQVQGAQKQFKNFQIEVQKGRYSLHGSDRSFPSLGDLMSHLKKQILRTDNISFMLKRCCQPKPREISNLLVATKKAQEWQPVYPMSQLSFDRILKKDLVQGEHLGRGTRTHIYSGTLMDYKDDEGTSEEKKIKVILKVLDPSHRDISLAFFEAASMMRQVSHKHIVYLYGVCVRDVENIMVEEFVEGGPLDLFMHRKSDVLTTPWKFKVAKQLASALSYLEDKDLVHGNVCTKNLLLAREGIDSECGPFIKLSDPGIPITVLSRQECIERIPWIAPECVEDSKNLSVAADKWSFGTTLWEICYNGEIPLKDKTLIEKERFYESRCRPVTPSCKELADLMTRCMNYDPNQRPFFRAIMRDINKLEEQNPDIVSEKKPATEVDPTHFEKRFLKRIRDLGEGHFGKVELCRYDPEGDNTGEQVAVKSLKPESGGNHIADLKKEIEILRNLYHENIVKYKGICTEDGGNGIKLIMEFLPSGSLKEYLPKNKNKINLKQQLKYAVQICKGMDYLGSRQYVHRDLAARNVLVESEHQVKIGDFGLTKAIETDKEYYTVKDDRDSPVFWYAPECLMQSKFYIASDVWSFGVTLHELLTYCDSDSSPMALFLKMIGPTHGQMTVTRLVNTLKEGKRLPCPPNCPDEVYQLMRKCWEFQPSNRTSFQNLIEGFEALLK
Non-receptor tyrosine-protein kinase TYK2, sequence (P29597 whole entry): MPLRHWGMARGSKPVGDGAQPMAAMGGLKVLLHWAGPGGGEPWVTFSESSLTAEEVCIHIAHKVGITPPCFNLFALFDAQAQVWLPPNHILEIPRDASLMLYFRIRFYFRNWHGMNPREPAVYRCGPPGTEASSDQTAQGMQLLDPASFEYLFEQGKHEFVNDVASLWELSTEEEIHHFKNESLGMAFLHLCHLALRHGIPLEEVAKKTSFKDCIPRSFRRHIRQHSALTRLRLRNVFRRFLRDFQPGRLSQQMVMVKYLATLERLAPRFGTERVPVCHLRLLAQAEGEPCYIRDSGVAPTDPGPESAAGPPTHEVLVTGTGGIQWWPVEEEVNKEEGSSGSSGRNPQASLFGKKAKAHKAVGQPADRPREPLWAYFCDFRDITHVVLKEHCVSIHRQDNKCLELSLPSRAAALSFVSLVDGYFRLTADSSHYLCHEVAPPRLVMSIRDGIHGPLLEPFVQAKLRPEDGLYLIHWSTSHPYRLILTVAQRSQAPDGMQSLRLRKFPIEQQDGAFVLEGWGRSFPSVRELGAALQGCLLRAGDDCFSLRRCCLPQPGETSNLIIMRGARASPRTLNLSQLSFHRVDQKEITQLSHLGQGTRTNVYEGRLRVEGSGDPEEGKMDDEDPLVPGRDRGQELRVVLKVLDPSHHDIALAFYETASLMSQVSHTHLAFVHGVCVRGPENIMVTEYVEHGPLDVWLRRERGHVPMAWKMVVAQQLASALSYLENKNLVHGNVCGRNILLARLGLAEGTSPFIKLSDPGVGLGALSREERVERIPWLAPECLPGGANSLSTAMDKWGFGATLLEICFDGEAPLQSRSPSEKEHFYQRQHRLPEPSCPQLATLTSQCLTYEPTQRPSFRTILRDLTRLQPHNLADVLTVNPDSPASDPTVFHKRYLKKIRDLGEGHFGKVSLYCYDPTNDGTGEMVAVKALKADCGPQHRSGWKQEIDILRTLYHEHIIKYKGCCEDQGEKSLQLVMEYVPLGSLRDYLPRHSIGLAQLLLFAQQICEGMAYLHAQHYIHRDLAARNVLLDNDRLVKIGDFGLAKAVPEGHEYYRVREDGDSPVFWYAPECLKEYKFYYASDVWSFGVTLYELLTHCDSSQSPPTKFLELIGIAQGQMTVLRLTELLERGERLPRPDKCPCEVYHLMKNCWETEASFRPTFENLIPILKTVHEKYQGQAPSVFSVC

Row | Structure (SMILES) | EC50 [1] | EC50 [2]
1 | CO[C@]1(c2cncc(-c3cn(C)c4cnc(NC(C)=O)cc34)n2)CCOC1 [US20190276450, Example 2.9] | 716 nM | –
2 | CO[C@]1(c2cc(C#N)cc(-c3cn([C@@H]4CC4(F)F)c4cnc(NC(C)=O)cc34)n2)CCOC1 [US20190276450, Example 2a.2] | 749 nM | –
3 | NC(=O)Nc1cc2c(-c3cccc(C4(O)COC4)n3)cn([C@H]3CCOC3)c2cn1 [US20190276450, Example 15.2] | 1840 nM | –
4 | Cn1cc(-c2cccc(C3(O)COC3)n2)c2cc(NC(N)=O)ncc21 [US20190276450, Example 14] | 563 nM | 11100 nM
5 | CNC(=O)Nc1cc2c(-c3cccc([C@]4(OC)CCOC4)n3)cn(C)c2cn1 [US20190276450, Example 1a.2] | 288 nM | –
6 | CO[C@@]1(c2cccc(-c3cn(C4(C)COC4)c4cnc(NC(C)=O)cc34)n2)CCOC1 [US20190276450, Example 18] | 494 nM | –
7 | COc1cc(-c2cn([C@@H]3CCOC3)c3cnc(NC(C)=O)cc23)nc([C@@]2(OC)CCOC2)c1 [US20190276450, Example 5.3] | 561 nM | –
8 | COc1cc(-c2cn([C@@H]3CCOC3)c3cnc(NC(C)=O)cc23)nc([C@]2(OC)CCOC2)c1 [US20190276450, Example 5.2] | 156 nM | > 100000 nM
9 | CO[C@@]1(c2cc(OC3COC3)cc(-c3cn(C)c4cnc(NC(C)=O)cc34)n2)CCOC1 [US20190276450, Example 8] | 90 nM | 22000 nM
10 | Cn1cc(-c2cccc(C3COC3)n2)c2cc(NC(N)=O)ncc21 [US20190276450, Example 13] | 492 nM | –
11 | COc1cc(-c2cn(C3COC3)c3cnc(NC(C)=O)cc23)nc([C@]2(OC)CCOC2)c1 [US20190276450, Example 5] | 111 nM | > 100000 nM
12 | COCc1cc(-c2nn(C)c3cnc(NC(C)=O)cc23)nc([C@]2(OC)CCOC2)c1 [US20190276450, Example 23] | 330 nM | –
13 | CO[C@@]1(c2cc(OCC#N)cc(-c3cn(C)c4cnc(NC(C)=O)cc34)n2)CCOC1 [US20190276450, Example 6.3] | 352 nM | –
14 | CO[C@@]1(c2cc(O[C@H]3C[C@@H](O)C3)cc(-c3cn(C)c4cnc(NC(C)=O)cc34)n2)CCOC1 [US20190276450, Example 11.2] | 124 nM | –
15 | CC(=O)Nc1cc2c(-c3cc(OC(C)C)cc(C4(O)COC4)n3)cn(C)c2cn1 [US20190276450, Example 14.3] | 339 nM | –
16 | COc1cc(-c2cn(C)c3cnc(NC(N)=O)cc23)nc([C@@]2(OC)CCOC2)c1 [US20190276450, Example 12.7] | 185 nM | 15000 nM
17 | CO[C@@]1(c2cc(C)cc(-c3cn([C@H]4C[C@H](C#N)C4)c4cnc(NC(C)=O)cc34)n2)CCOC1 [US20190276450, Example 17.4] | 127 nM | 20000 nM
18 | COCc1cc(-c2c[nH]c3cnc(NC(C)=O)cc23)nc([C@]2(OC)CCOC2)c1 [US20190276450, Example 2-NH] | 310 nM | –
19 | CO[C@@]1(c2cccc(-c3c[nH]c4cnc(NC(C)=O)cc34)n2)CCOC1 [US20190276450, Example 17-NH] | 1520 nM | –
20 | CO[C@]1(c2cc(C#N)cc(-c3cn(C)c4cnc(NC(N)=O)cc34)n2)CCOC1 [US20190276450, Example 12.2] | 551 nM | –

Row | Structure (SMILES) | EC50 [1] | EC50 [2]
21 | CO[C@]1(c2cc(OCC3COC3)cc(-c3cn(C)c4cnc(NC(C)=O)cc34)n2)CCOC1 [US20190276450, Example 6.2] | 103 nM | 5200 nM
22 | CC[C@]1(c2cccc(-c3cn(C)c4cnc(NC(C)=O)cc34)n2)CCOC1 [US20190276450, Example 2.3a] | 2220 nM | –
23 | COc1cc(-c2cn(C)c3cnc(NC(C)=O)cc23)nc([C@]2(OC)CCOC2)c1 [US20190276450, Example 20] | 137 nM | 45000 nM
24 | CO[C@]1(c2cccc(-c3cn(C)c4cnc(NC(C)=O)cc34)n2)CCOC1 [US20190276450, Example 16a] | 1590 nM | –
25 | COC1(c2cccc(-c3c[nH]c4cnc(NC(C)=O)cc34)n2)CCOC1 (stereo unspecified) [US20190276450, Example 16-NH] | 3140 nM | –
26 | CO[C@@]1(c2cc(C(F)F)cc(-c3cn([C@H]4CCOC4)c4cnc(NC(N)=O)cc34)n2)CCOC1 [US20190276450, Example 12b.3] | 56 nM | 68000 nM
27 | CC[C@]1(c2cccc(-c3cn(C)c4cnc(NC(N)=O)cc34)n2)CCOC1 [US20190276450, Example 3.3] | 388 nM | –
28 | COc1cc(-c2cn(C3COC3)c3cnc(NC(C)=O)cc23)nc([C@@]2(OC)CCOC2)c1 [US20190276450, Example 4.4] | 353 nM | –
29 | CC[C@@]1(c2cccc(-c3cn(C)c4cnc(NC(C)=O)cc34)n2)CCOC1 [US20190276450, Example 2.3] | 96 nM | 18000 nM
30 | CO[C@]1(c2cc(C#N)cc(-c3cn(C)c4cnc(NC(C)=O)cc34)n2)CCOC1 [US20190276450, Example 2.5] | 694 nM | –
31 | CO[C@@]1(c2cncc(-c3cn(C)c4cnc(NC(C)=O)cc34)n2)CCOC1 [US20190276450, Example 2.10] | 368 nM | –
32 | CO[C@@]1(c2cc(C#N)cc(-c3cn(C)c4cnc(NC(C)=O)cc34)n2)CCOC1 [US20190276450, Example 2.6] | 268 nM | –
33 | COCCOc1cc(-c2cn(C)c3cnc(NC(C)=O)cc23)nc([C@@]2(CO)CCOC2)c1 [US20190276450, Example 22.9] | 1320 nM | –
34 | NC(=O)Nc1cc2c(-c3cccc(C4(O)COC4)n3)cn([C@@H]3CCOC3)c2cn1 [US20190276450, Example 15] | 908 nM | 73000 nM
35 | COc1cc(-c2cn(C)c3cnc(NC(C)=O)cc23)nc([C@@]2(CO)CCOC2)c1 [US20190276450, Example 22.7] | 3100 nM | –
36 | COCc1cc(-c2cn(C)c3cnc(NC(N)=O)cc23)nc([C@@]2(OC)CCOC2)c1 [US20190276450, Example 12.4] | 319 nM | –
37 | CO[C@@]1(c2cc(C(F)F)cc(-c3cn([C@@H]4CCOC4)c4cnc(NC(N)=O)cc34)n2)CCOC1 [US20190276450, Example 12b.2] | 15 nM | 40000 nM
38 | CO[C@@]1(c2cccc(-c3cn([C@H]4C[C@@H](C#N)C4)c4cnc(NC(C)=O)cc34)n2)CCOC1 [US20190276450, Example 17a] | 477 nM | –
39 | CO[C@@]1(c2cccc(-c3cn(C4(C)COC4)c4cnc(NC(N)=O)cc34)n2)CCOC1 [US20190276450, Example 19] | 198 nM | –
40 | CO[C@@]1(c2cccc(-c3cn(C4(F)COC4)c4cnc(NC(C)=O)cc34)n2)CCOC1 [US20190276450, Example 18a] | 537 nM | –

Row | Structure (SMILES) | EC50 [1] | EC50 [2]
41 | CO[C@]1(c2cc(C)cc(-c3cn(C)c4cnc(NC(N)=O)cc34)n2)CCOC1 [US20190276450, Example 1b.3] | 445 nM | 4460 nM
42 | CO[C@]1(c2cc(C(F)F)cc(-c3cn(C4COC4)c4cnc(NC(C)=O)cc34)n2)CCOC1 [US20190276450, Example 4.2] | 616 nM | –
43 | COc1cc(-c2cn(C)c3cnc(NC(C)=O)cc23)nc([C@@]2(OC)CCOC2)c1 [US20190276450, Example 20a] | 906 nM | –
44 | COc1cc(-c2cn(C)c3cnc(NC(C)=O)cc23)nc(C2(O)COC2)c1 [US20190276450, Example 14.2] | 673 nM | –
45 | CO[C@@]1(c2cccc(-c3cn(C)c4cnc(NC(C)=O)cc34)n2)CCOC1 [US20190276450, Example 16] | 310 nM | –
46 | CO[C@@]1(c2cc(C#N)cc(-c3cn([C@@H]4CC4(F)F)c4cnc(NC(N)=O)cc34)n2)CCOC1 [US20190276450, Example 12a.3] | 66 nM | > 100000 nM
47 | CO[C@@]1(c2cc(C)cc(-c3cn([C@H]4C[C@@H](C#N)C4)c4cnc(NC(C)=O)cc34)n2)CCOC1 [US20190276450, Example 17.5] | 5 nM | 32000 nM
48 | CO[C@@]1(c2cc(C(F)F)cc(-c3cn(C)c4cnc(NC(N)=O)cc34)n2)CCOC1 [US20190276450, Example 12.5] | 22 nM | 20000 nM
49 | CO[C@]1(c2cc(O[C@H]3C[C@H](O)C3)cc(-c3cn(C)c4cnc(NC(C)=O)cc34)n2)CCOC1 [US20190276450, Example 11a] | 496 nM | –
50 | CO[C@]1(c2cc(C(F)F)cc(-c3cn(C)c4cnc(NC(C)=O)cc34)n2)CCOC1 [US20190276450, Example 2.7] | 254 nM | –
51 | CO[C@@]1(c2cc(C(F)F)cc(-c3cn([C@H]4C[C@@H](C#N)C4)c4cnc(NC(C)=O)cc34)n2)CCOC1 [US20190276450, Example 17.3] | 8 nM | –
52 | CO[C@]1(c2cccc(-c3cn(C)c4cnc(NC(N)=O)cc34)n2)CCOC1 [US20190276450, Example 1a] | 468 nM | –
53 | CO[C@@]1(c2cc(C#N)cc(-c3cn([C@H]4CC4(F)F)c4cnc(NC(C)=O)cc34)n2)CCOC1 [US20190276450, Example 2a.5] | 1590 nM | –
54 | CO[C@@]1(c2cccc(-c3cn([C@H]4CC4(F)F)c4cnc(NC(N)=O)cc34)n2)CCOC1 [US20190276450, Example 1.3] | 2030 nM | –
55 | COCc1cc(-c2cn(C)c3cnc(NC(C)=O)cc23)nc([C@@]2(OC)CCOC2)c1 [US20190276450, Example 2.4] | 699 nM | –
56 | CO[C@@]1(c2cc(C(F)F)cc(-c3cn(C4COC4)c4cnc(NC(N)=O)cc34)n2)CCOC1 [US20190276450, Example 12b.4] | 45 nM | 40000 nM
57 | CO[C@@]1(c2cc(C#N)cc(-c3cn([C@H]4CC4(F)F)c4cnc(NC(N)=O)cc34)n2)CCOC1 [US20190276450, Example 12a.2] | 578 nM | –
58 | CO[C@]1(c2cc(C#N)cc(-c3cn([C@H]4CC4(F)F)c4cnc(NC(C)=O)cc34)n2)CCOC1 [US20190276450, Example 2a.4] | 2360 nM | –
59 | CC(=O)Nc1cc2c(-c3cccc([C@@]4(CO)CCOC4)n3)cn(C)c2cn1 [US20190276450, Example 21a] | 1310 nM | –

Reference: BindingDB's records for patent US20190276450 (Abbvie, 2019)
